Measurements taken from patent US5559144A, “Furyl and thienyl alkynyl-N-hydroxy urea derivatives” (Abbott Laboratories, priority 1995, dated 1996).

What was measured:
[1] = tested on: Leukotrienes (biosynthesis); assay: Inhibition of leukotriene biosynthesis in vivo after oral administration, rat peritoneal anaphylaxis model; conditions: 1 h, gavage one hour prior to antigen challenge, read-out: Percent Inhibition of Leukotrienes; for inhibition in vivo at 100 µmol/kg: Oral Dose at 100 μmol/kg; for inhibition in vivo at 30 µmol/kg: Oral Dose at 30 μmol/kg; for inhibition in vivo at 200 µmol/kg: Oral Dose at 200 μmol/kg
Protocol: Inhibition of the biosynthesis of leuktrienes in vivo after oral administration of compound was determined using a rat peritoneal anaphylaxis model in a similar manner as that described by Young and coworkers (Young, P. R.; Dyer, R. D.; Carter, G. W. Fed. Proc., Fed. Am. Soc. Exp. Biol. 1985, 44, 1185). In this model rats were injected intraperitoneally (ip) with rabbit antibody to bovine serum albumin (BSA) and three hours later injected ip with BSA to induce an antgen-antibody response. Rats were sacrificed 15 minutes after this challenge and the peritoneal fluids were collected and analyzed for leukotriene levels. Test compounds were administered by gavage one hour prior to the antigen challenge. Percent inhibition values were determined by comparing the treatment group to the mean of the control group.

[2] = target: T1, 5-Lipoxygenase from RBL-1 20,000xg Supernatant (Rattus norvegicus, UniProt P12527); assay: 5-lipoxygenase inhibitory activity, 20,000 xg supernatant from homogenized RBL-1 cells; type: biochemical; conditions: radiolabeled arachidonic acid, triplicate
T1 construct: 20,000 xg supernatant from 1.5 million homogenized RBL-1 cells; endogenous in cells; host or cells: RBL-1 cells (20,000 xg supernatant of homogenate)
T1 sequence (P12527 1-673): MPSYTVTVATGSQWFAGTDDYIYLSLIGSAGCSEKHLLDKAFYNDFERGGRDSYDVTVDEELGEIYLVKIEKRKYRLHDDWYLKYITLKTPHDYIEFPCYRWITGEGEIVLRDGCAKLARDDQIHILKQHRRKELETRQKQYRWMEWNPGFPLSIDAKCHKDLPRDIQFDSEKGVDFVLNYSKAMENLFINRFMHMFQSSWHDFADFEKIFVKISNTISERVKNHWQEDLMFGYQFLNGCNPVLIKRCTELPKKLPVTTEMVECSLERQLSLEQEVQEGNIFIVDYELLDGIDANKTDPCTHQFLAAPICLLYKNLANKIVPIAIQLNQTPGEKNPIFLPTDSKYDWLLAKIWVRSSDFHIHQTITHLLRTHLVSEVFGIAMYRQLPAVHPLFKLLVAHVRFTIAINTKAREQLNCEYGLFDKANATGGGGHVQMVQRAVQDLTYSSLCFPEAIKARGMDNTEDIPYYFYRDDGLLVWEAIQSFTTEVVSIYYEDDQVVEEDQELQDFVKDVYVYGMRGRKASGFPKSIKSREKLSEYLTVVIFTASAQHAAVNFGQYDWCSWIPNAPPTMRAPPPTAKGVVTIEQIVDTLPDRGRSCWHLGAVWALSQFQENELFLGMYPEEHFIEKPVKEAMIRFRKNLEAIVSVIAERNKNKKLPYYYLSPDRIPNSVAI
Protocol: Assays to determine 5-lipoxygenase inhibitory activity of representative compounds of the present invention were performed in […] incubations containing the 20,000 xg supernatant from 1.5 million homogenized RBL-1 cells and various concentrations of the test compound. Reactions were initiated by addition of radiolabeled arachidonic acid and terminated by acidification and ether extraction. Reaction products were separated from nonconverted substrate by thin layer chromatography and measured by liquid scintillation spectroscopy. All incubations are performed in triplicate. Inhibition of 5-lipoxygenase activity was calculated as the ratio of the amount of product formed in the presence and absence of inhibitor. […] (Dyer, R. D.; Haviv, F.; Hanel, A. M.; Bornemier, D. A.; Carter, G. W. Fed. Proc., Fed. Am. Soc. Exp. Biol. 1984, 43, 1462A).

| IC50 [2] [nM] | Structure (SMILES) | also measured |
| --- | --- | --- |
| 500 | NC(=O)N(O)CC#Cc1cccc(Oc2ccccc2)c1 [Example 33, N-Hydroxy-N-[3-(3-phenoxyphenyl)-2-propynyl]urea] | inhibition in vivo at 100 µmol/kg [1]: 99% |
| 1400 | Cc1ccc(C#CC(C)N(O)C(N)=O)cc1 (stereo not shown) [Example 28, N-Hydroxy-N-[4-(4-methylphenyl)-3-butyn-2-yl]urea] |  |
| 900 | CC(C#CCCc1cccc(Oc2ccccn2)c1)N(O)C(N)=O (stereo not shown) [Example 55, N-Hydroxy-N-[6-[3-(2-pyridinyloxy)phenyl]-3-hexyn-2-yl,1]-urea] |  |
| 1700 | Cc1ccc(C#CC(C)N(O)C(N)=O)s1 (stereo not shown) [Example 14, N-Hydroxy-N-[4-(5,methylthien-2-yl)-3-butyn-2-y]urea] |  |
| 500 | CC(C#Cc1cccc(Oc2ccc(Cl)cc2)c1)N(O)C(N)=O (stereo not shown) [Example 42, N-Hydroxy-N-[4-[3-(4-chlorophenoxy)phenyl]-3-butyn-2-yl]urea] | inhibition in vivo at 100 µmol/kg [1]: 66% |
| 500 | CNC(=O)N(O)C(C)C#Cc1ccc(C(C)C)cc1 (stereo not shown) [Example 23, N-Hydroxy-N-[4-[4-(1-methylethyl)phenyl]-3-butyn-2-yl]-N'-methylurea] |  |
| 1100 | CNC(=O)N(O)C(C)C#Cc1ccc(Cl)cc1 (stereo not shown) [Example 20, N-Hydroxy-N-[4-(4-chlorophenyl)-3-butyn-2-yl]-N'-methylurea] | inhibition in vivo at 100 µmol/kg [1]: 89% |
| 500 | CNC(=O)N(O)C(C)C#Cc1ccc(Br)cc1 (stereo not shown) [Example 18, N-Hydroxy-N-[4-(4-bromophenyl)-3-butyn-2-yl]-N'-methylurea] |  |
| 200 | CC(C#Cc1ccc(Sc2ccccc2)o1)N(O)C(N)=O (stereo not shown) [Example 59, N-hydroxy-N-[4-(5-thiophenoxy-2-furyl)-3-butyn-2-yl]urea] | inhibition in vivo at 30 µmol/kg [1]: 62% |
| 400 | CC(C)c1ccc(C#CC(C)N(O)C(N)=O)cc1 (stereo not shown) [Example 22, N-Hydroxy-N-[4-[4-(1-methylethyl)phenyl]-3-butyn-2-yl]urea] | inhibition in vivo at 100 µmol/kg [1]: 86% |
| 2100 | CC(C#Cc1ccc(F)cc1)N(O)C(N)=O (stereo not shown) [Example 21, N-Hydroxy-N-[4,(4-fluorophenyl)-3-butyn-2-yl]urea] | inhibition in vivo at 100 µmol/kg [1]: 90% |
| 300 | CC(C#Cc1ccc(Oc2ccccc2)cc1)N(O)C(N)=O (stereo not shown) [Example 12, N-Hydroxy-N[4-(4-phenoxyphenyl)-3-butyn-2-yl]urea] |  |
| 900 | CC(C#CCCc1ccccc1)N(O)C(N)=O (stereo not shown) [Example 26, N-Hydroxy-N-(6-phenyl-3-hexyn-2-yl)urea] | inhibition in vivo at 100 µmol/kg [1]: 78% |
| 2400 | CC(C#Cc1ccccc1)N(O)C(N)=O (stereo not shown) [Example 1, N-Hydroxy-N(4-phenyl-3-butyn-2-yl)urea] | inhibition in vivo at 200 µmol/kg [1]: 98% |
| 7000 | CC(C#Cc1ccoc1)N(O)C(N)=O (stereo not shown) [Example 34, N-Hydroxy-N-[4-(3-furyl)-3-butyn-2-yl]urea] | inhibition in vivo at 100 µmol/kg [1]: 96% |
| 1900 | CC(C#CC1CCCCC1)N(O)C(N)=O (stereo not shown) [Example 8, N-Hydroxy-N-[4-cyclohexyl-3-butyn-2-yl]urea] | inhibition in vivo at 200 µmol/kg [1]: 41% |
|  | NC(=O)N(O)CC#CCOc1cccc(Oc2ccccc2)c1 [Example 38, N-Hydroxy-N-[4-(3-phenoxyphenoxy)-2-butynyl]urea] | inhibition in vivo at 100 µmol/kg [1]: 100% |
| 3500 | NC(=O)N(O)CC#CCOc1ccccc1 [Example 41, N-Hydroxy-N-(4-phenoxy-2-butynyl)urea] |  |
| 300 | CCCCc1ccc(C#CC(C)N(O)C(N)=O)s1 (stereo not shown) [Example 13, N-Hydroxy-N-[4-(5-butylthien-2-yl)-3-butyn-2-yl]urea] |  |
|  | CC(C#CCOc1ccccc1)N(O)C(N)=O (stereo not shown) [Example 10, N-Hydroxy-N-(5-phenoxy-3-pentyn-2-yl)urea] | inhibition in vivo at 200 µmol/kg [1]: 99% |
| 200 | CC(C#CCOc1cccc(Oc2ccccc2)c1)N(O)C(N)=O (stereo not shown) [Example 45, N-Hydroxy-N-[5-(3-phenoxyphenoxy)-3-pentyn-2-yl]urea] |  |

| IC50 [2] [nM] | Structure (SMILES) | also measured |
| --- | --- | --- |
| 2000 | COc1ccc(C#CC(C)N(O)C(N)=O)cc1 (stereo not shown) [Example 37, N-Hydroxy-N-[4-(4-methoxyphenyl)-3-butyn-2-yl]urea] |  |
|  | NC(=O)N(O)CC#Cc1cccc(Oc2ccccn2)c1 [Example 63, N-Hydoxy-N-[3-[3-(2-pyridinyloxy)phenyl]-2-propyn-1-yl]urea] | inhibition in vivo at 30 µmol/kg [1]: 85% |
| 130 | CC(C#Cc1ccc(OCc2ccccc2)cc1)N(O)C(N)=O (stereo not shown) [Example 7, N-Hydroxy-N-[4-(4-benzyloxyphenyl)-3-butyn-2-yl]urea] |  |
| 500 | COc1ccc(Oc2cccc(C#CC(C)N(O)C(N)=O)c2)cc1 (stereo not shown) [Example 40, N-Hydroxy-N-[4-[3-(4-methoxyphenoxy)phenyl]-3-butyn-2-yl]urea] |  |
| 300 | CNC(=O)N(O)C(C)C#Cc1cccc(Oc2ccccn2)c1 (stereo not shown) [Example 56, N-Hydroxy-N-[4-[3-(2-pyridinyloxy)phenyl]-3-butyn-2-yl]-N'-methylurea] |  |
| 200 | COc1cccc(Oc2cccc(C#CC(C)N(O)C(N)=O)c2)n1 (stereo not shown) [Example 65, N-Hydroxy-N-[4-[3-(6-methoxypyridin-2-yloxy)phenyl]-3-butyn-2-yl]urea] |  |
| 300 | CCc1ccc(C#CC(C)N(O)C(N)=O)cc1 (stereo not shown) [Example 24, N-Hydroxy-N-[4-(4-ethylphenyl)-3-butyn-2-yl]urea] |  |
| 800 | CNC(=O)N(O)C(C)C#Cc1ccc(C)cc1 (stereo not shown) [Example 29, N-Hydroxy-N-[4-(4-methylphenyl)-3-butyn-2-yl]-N'-methylurea] |  |
|  | NC(=O)N(O)CC#Cc1ccc(Oc2ccc(F)cc2)o1 [Example 60, N-hydroxy-N-{3-[5-(4-fluorophenoxy)-2-furyl]-2-propynyl}urea] | inhibition in vivo at 30 µmol/kg [1]: 70% |
|  | COc1ccc2cc(C#CC(C)N(O)C(N)=O)ccc2c1 (stereo not shown) [Example 2, N-Hydroxy-N-[4-(6-methoxynaphth-2-yl)-3-butyn-2-yl]urea] | inhibition in vivo at 200 µmol/kg [1]: 66% |
| 200 | CC(C#Cc1cccc(OCc2ccccc2)c1)N(O)C(N)=O (stereo not shown) [Example 6, N-Hydroxy-N-[4-(3-benzyloxyphenyl)-3-butyn-2-yl]urea] |  |
| 100 | CC(C#Cc1cccc(Oc2ccccc2)c1)N(O)C(N)=O (stereo not shown) [Example 3, N-Hydroxy-N-[4-(3-phenoxyphenyl)-3-butyn-2-yl]urea] |  |
| 3600 | CC(C#CCN(C)Cc1ccccc1)N(O)C(N)=O (stereo not shown) [Example 5, N-Hydroxy-N-[5-[(N-methyl-N-benzyl)amino]-3-pentyn,2-yl]urea] |  |
| 3300 | CNC(=O)N(O)C(C)C#Cc1ccccc1 (stereo not shown) [Example 15, N-Hydroxy-N-(4-phenyl-3-butyn-2-yl)-N'-methylurea] |  |
|  | NC(=O)N(O)CC#CCOc1cccc(Oc2cccnc2)c1 [Example 49] | inhibition in vivo at 100 µmol/kg [1]: 98% |
| 100 | CC(C#Cc1cc2ccccc2s1)N(O)C(N)=O (stereo not shown) [Example 16, N-Hydroxy-N-[4-(2-benzo[b]thienyl)-3-butyn-2-yl]urea] |  |
| 1200 | CC(C#CC1=CCCCC1)N(O)C(N)=O (stereo not shown) [Example 9, N-Hydroxy-N-(4-cyclohexen-1-yl-3butyn-2-yl)urea] |  |
| 400 | Cc1ccc(Oc2cccc(C#CC(C)N(O)C(N)=O)c2)cc1 (stereo not shown) [Example 35, N-Hydroxy-N-[4-[3-(4-methylphenoxy)phenyl]-3-butyn-2-yl]urea] |  |
| 6200 | CC(C#Cc1ccco1)N(O)C(N)=O (stereo not shown) [Example 31, N-Hydroxy-N-[4-(2-furyl)-3-butyn-2-yl]urea] |  |
|  | NC(=O)N(O)CC#Cc1cccc(Oc2cccnc2)c1 [Example 54, N-Hydroxy-N-[3-[3-(3-pyridinyloxy)phenyl]-2-propyn-1-yl]urea] | inhibition in vivo at 30 µmol/kg [1]: 78% |
| 700 | CNC(=O)N(O)C(C)C#CCCc1ccccc1 (stereo not shown) [Example 27, N-Hydroxy-N-(6-phenyl-3-hexyn-2-yl)-N'-methylurea] |  |
